In PMC7144563 (Molecules, 2020):

Experimental: Cellulose membrane was properly treated and mounted in the Franz diffusion cells (diffusion area 4.9 cm^2, compartment volume 20 mL). The acceptor compartment was filled with PBS pH 7.4 and the donor compartment was filled with 1 mL of the formulation described above (100 μg/mL of the compounds). Permeation studies were conducted under constant stirring (90 rpm) at 37 °C. Samples of 0.5 mL were withdrawn from the acceptor compartment at predetermined time intervals (30 min, 1 h, 2 h, 4 h, 6 h, 8 h) and replaced with fresh and preheated PBS. Experiments were repeated in triplicates for each compound and blank experiments containing only the medium were also performed. The samples were analyzed by HPLC without any previous pretreatment.
Steady state flux (Jss) was calculated from the slope of the linear section of the plot of the amount of permeated compound per unit area (μg/cm^2) against to time. The apparent permeability coefficient (Papp) was calculated using Equation (3), where Cd is the initial concentration of the drug in the donor compartment and Jss is the steady state flux. (3) Papp=Jss/Cd

In the case of `C[C@]12CCC(=O)C[C@@H]1CC[C@@H]1[C@@H]2CC[C@]2(C)[C@@H](O)CC[C@@H]12` [COMP 3, Androstanolone], the “Papp values compared to the rest of the tested steroids” value (during the first 4 h (2 h and 4 h) of the in vitro permeability study, considered outlier) is reported as “significantly higher”.
For `C[C@]12C=CC(=O)C=C1CC[C@@H]1[C@@H]2C(=O)C[C@@]2(C)[C@H]1CC[C@]2(O)C(=O)CO` [COMP 27, Prednisone], the “apparent permeability coefficient (Papp)” value (pH 7.4) was “highest”.
